In patent US12102685B2, “Immodulator peptides covalently modified with small molecules” (priority 2020, dated 2024):
Marks after values point to notes of the source that are not given here. Peptide text beside a SMILES is read from it.

Assays:
[1] = IM3 / FITC-PI(4,5)P2 binding on metal-charged NTA plates (x9C)
Experimental: NTA-coated 96-well plates were charged with either 500 uM zinc chloride or 500 uM ferric chloride and washed. Immodulator peptide IM3 (100 ng/well) and FITC-PI(4,5)P2 (50 ng/well) were added, with or without 2 ug/well cold PPI, and incubated at room temperature for 60 minutes. The plate was washed and counted in a fluorometer.

[2] = system: NF-kappa-B (NFkB); experiment: THP1-Dual monocyte reporter, NF-kappa-B readout (x4A); type: cell-based
Experimental: Immune modulation functions of immodulator peptides were measured using the monocyte reporter cell line THP1-Dual (Invivogen, San Diego, CA), which provides convenient readouts for STING and NF-kappa-B pathways. Optionally, succinic acid, cytokine and chemokine production were also measured. THP1-Dual cell line was obtained from Invivogen. Cells were grown in a T-75 flask in RPMI Medium containing 20% fetal bovine serum, blasticidin ([…]), zeocin ([…]) and penicillin-streptomycin at 37° C. in a humidified, 5% CO2 incubator. Cells ([…], 8,000 cells/well) were plated in a 96-well plate and incubated overnight at 37 °C in a humidified, 5% CO2 incubator. Next day, […] of compounds were added (quadruplicate wells). After 24 hour incubation with the compound, supernatants were harvested and stored at 4° C. prior to assay.
Each cell supernatant was assayed in quadruplicate. 20 uL of supernatant was used to measure NF-kappa-B (NFkB) and
STING activity using reagents QuantiBlu and QuantiLuc respectively, according to the manufacturer's recommendations (Invivogen, San Diego, CA). Succinic acid was measured by using a kit from Megazyme Inc (Cambridge, MA). Control value of activity was set to 100 in each assay. […] PAM3C=25 ng/ml PAM3CSK4 (TLR1/2 inducer); Poly(I:C)=10 ug/ml (TLR3 inducer); PAM2C=25 ng/ml PAM2CSK4 (TLR2/6 inducer); KIN14=4 uM KIN-1400 (RIG-I inducer); cytB=1 uM cytosporone B (Nur77 inducer); C-178=1 uM STING inhibitor; NFkBi=50 ug/ml NFkB inhibitor peptide; SB2021=10 uM p38MAPK inhibitor; *p<0.05, **p<0.01 vs IM3 control; #p<0.01 vs “no inducer” control; SUCC=succinic acid; nd=not done; Peptide was added to cells at 400 nM.
Peptides were added to cells at 400 nM. […]

[3] = NTA-metal-affinity ELISA (Experiment x2A); type: binding
Experimental: The NTA-metal-affinity ELISA assay was performed using 96-well NTA-metal-coated plates readily available from commercial sources such as Qiagen (Germantown, MD). The NTA was charged with ferrous or ferric iron, zinc, copper, calcium, vanadium, ruthenium, cobalt, titanium, manganese or other metals. 400 ng of immodulator peptide IM3N1 in PBS buffer was added per plate. After incubation at room temperature for 60 minutes, excess peptide was washed off and peptide was detected by ELISA using an anti-immodulator rabbit primary antibody (A2501) and horseradish peroxidase conjugated to a secondary anti-rabbit antibody (arbitrary units)*vs EDTA control: • EDTA (no metal): 0.047±0.001 • Fe2+ (Ferrous): 0.844±0.026 (p<0.001*) • Fe3+ (Ferric): 0.848±0.011 (p<0.001*) • Zn2+ (Zinc): 0.194±0.089 (p<0.05*) • Cu2+ (Copper): 0.229±0.086 (p<0.05*)

[4] = system: rat scald model; experiment: Rat scald model, study effects (Table x7A); type: in vivo; conditions: burn + IM3N1 4 mg/kg sc once daily for seven days; n=3

In the case of N=C(N)NCCC[C@H](NC(=O)CNC(=O)[C@H](CCCCN)NC(=O)[C@H](CO)NC(=O)[C@@H]1CCCN1C(=O)[C@H](CCCNC(=N)N)NC(=O)[C@H](CS)NC(=O)[C@H](CCC(N)=O)NC(=O)[C@H](CCCCN)NC(=O)[C@H](CCCCN)NC(=O)[C@H](CCCCN)NC(=O)[C@H](Cc1ccc(O)cc1)NC(=O)[C@H](Cc1ccccc1)NC(=O)CNC(=O)[C@H](CCCCN)NC(=O)[C@@H](N)CCCCN)C(=O)N[C@@H](CCCCN)C(=O)N[C@@H](CCCNC(=N)N)C(=O)NCC(=O)N[C@@H](Cc1ccccc1)C(=O)N[C@@H](CS)C(=O)N[C@@H](Cc1c[nH]c2ccccc12)C(=O)O [IM3] (H-KKGFYKKKQCRPSKGRKRGFCW-OH; N-terminus and C-terminus assumed), the “fluorescence, FITC-PI(4,5)P2” value ([1]; Ferric iron, cold PI(3)P1 2 ug/well) is reported as 78.5 ± 5.8, the “fluorescence, FITC-PI(4,5)P2” value ([1]; Ferric iron, cold PI(3,5)P2 2 ug/well) is reported as 100.0 ± 3.2 and the “fluorescence, FITC-PI(4,5)P2” value ([1]; Ferric iron, no cold PPI) is reported as 80.1 ± 1.8. For the same molecule, the “fluorescence, FITC-PI(4,5)P2” value ([1]; No metal, no cold PPI, IM3 100 ng/well) was 0.0 ± 0.2, the “fluorescence, FITC-PI(4,5)P2” value ([1]; Zinc, no cold PPI) was 2.2 ± 0.3 and the NFkB ([2]; peptide 400 nM + KIN1400 (= 100)) was 100. For the same molecule, the NFkB ([2]; peptide 400 nM + KIN1400 + C-178 1 uM) was 98.1, the NFkB ([2]; peptide 400 nM + KIN1400 + NFkBi 50 ug/ml) was 104.4 and the NFkB ([2]; peptide 400 nM + KIN1400 + SB2021 10 uM) was 131.3**. For the same molecule, the NFkB ([2]; peptide 400 nM + KIN1400 + cytB 1 uM) was 103.5, the NFkB ([2]; peptide 400 nM + PAM2C (= 100)) was 100 and the NFkB ([2]; peptide 400 nM + PAM2C + C-178 1 uM) was 108.0**. For the same molecule, the NFkB ([2]; peptide 400 nM + PAM2C + NFkBi 50 ug/ml) was 118.7*, the NFkB ([2]; peptide 400 nM + PAM2C + SB2021 10 uM) was 65.4** and the NFkB ([2]; peptide 400 nM + PAM2C + cytB 1 uM) was 99.8. For the same molecule, the NFkB ([2]; peptide 400 nM + PAM3C + C-178 1 uM) was 561, the NFkB ([2]; peptide 400 nM + PAM3C + NFkBi 50 ug/ml) was 458** and the NFkB ([2]; peptide 400 nM + PAM3C + SB2021 10 uM) was 296**. The NFkB ([2]; peptide 400 nM + PAM3C + cytB 1 uM) was 576, the NFkB ([2]; peptide 400 nM + PAM3C, control = 100) was 575 and the NFkB ([2]; peptide 400 nM, no inducer, control = 100) was 94**.

In the case of “RGVTEDYLRLETLVQKVVSKGFYKKKQCRPSKGRKRGFCW [IM3N1]”, the “peptide bound, ELISA” value ([3]; Cu2+ (Copper)) is reported as 0.229±0.086 arbitrary units, the “peptide bound, ELISA” value ([3]; EDTA (no metal), 400 ng peptide) is reported as 0.047±0.001 arbitrary units and the “peptide bound, ELISA” value ([3]; Fe2+ (Ferrous)) is reported as 0.844±0.026 arbitrary units. For the same molecule, the “peptide bound, ELISA” value ([3]; Fe3+ (Ferric)) was 0.848±0.011 arbitrary units, the “peptide bound, ELISA” value ([3]; Zn2+ (Zinc)) was 0.194±0.089 arbitrary units and the “Glycemic Control (GTT AUC)” value [4] was 69.0 ± 18.1 mg·dL·h. The “Kidney Function (eGFR, calculated)” value [4] was 1.29 ± 0.32, the “Lean Body Mass (DEXA)” value [4] was 328.5 ± 5.1 and the “Urinary 8-isoprostate” value [4] was 4.53 ± 1.21 ng/pg cystatin.
